Source: patent publication US7618796B2, “Peptide-forming enzyme gene, peptide-forming enzyme, and peptide producing method” (Ajinomoto Co., Inc., priority 2001, dated 2009)
Read-outs that look alike come from different tables or passages of the source. Blank lines part the entries; values can stand above or below the molecule they belong to. Residues, ends and D or L forms follow the SMILES beside them.

Legend:
[1] = system: Pseudomonas putida strain FERM BP-8101; details: substrate solution with 20 mM EDTA, 200 mM L-alanine ethyl ester hydrochloride, 400 mM L-glutamine, pH 9.0, 1 hour, 30° C.; 4.9 mM with no EDTA
Description: However, the present invention is not limited to these examples.

[2] = molecular target: proline iminopeptidase of Bacillus coagulans strain EK01 (Heyndrickxia coagulans, UniProt P46541); assay: Effect of inhibitors on L-alanyl-L-glutamine synthesis; format: biochemical; details: 1 mM inhibitor, 30 minutes, 30° C.
[3] = system: proline iminopeptidase of Pseudomonas putida strain ATCC 12633; assay: as above; format: biochemical; details: 1 mM inhibitor, 30 minutes, 30° C.
Protocol: The effects of inhibitors on acquired proline iminopeptidase were investigated. The enzyme reaction was carried out for 30 minutes at 30° C. with a reaction solution consisting of 0.1 M borate buffer (pH 9.0), 10 mM EDTA, 100 mM L-alanine methyl ester hydrochloride, 150 mM L-glutamine and 1 mM inhibitor, followed by measurement of L-alanyl-L-glutamine synthesis. […] The activity was not affected by any of the inhibitors investigated for Corynebacterium glutamicum strain ATCC 13286.

[4] = system: proline iminopeptidase of Pseudomonas putida strain FERM BP-8123; assay: as above; format: biochemical; details: 1 mM inhibitor, 30 minutes, 30° C.
[5] = system: Pseudomonas putida strain FERM BP-8101; assay: Dipeptide production from test L-alanine esters / L-amino acids by cell suspension; format: cell-based; details: 20 mM EDTA, pH 9.0, 1 hour, 30° C.; for L-alanyl-L-glutamine produced: test L-alanine ester hydrochloride 200 mM with L-glutamine 400 mM; for L-alanyl dipeptide produced: L-alanine methyl ester hydrochloride 200 mM with test L-amino acid 400 mM
Protocol: Note that in the examples, quantitative determination of L-alanine, L-alanyl-L-glutamine or L-alanyl-L-asparagine was carried out by a method using high performance liquid chromatography (column: Inertsil ODS-2 (GL Science), eluate: aqueous phosphate solution (pH 2.2, 5.0 mM sodium 1-octane sulfonate/methanol=100/15), flow rate: 1.0 mL/min, detection: 210 nm).

[6] = system: His-Tag purified peptide-forming enzyme of Corynebacterium glutamicum strain ATCC 13286; assay: Study of substrate specificity using His-Tag purified enzyme; format: biochemical; details: 25° C.; for quantity of L-alanyl dipeptide produced from L-alanine methyl ester and test amino acid: 100 mM L-alanine methyl ester hydrochloride, 150 mM test amino acid; for quantity of L-alanyl dipeptide produced from L-alanine methyl ester and test amino acid / quantity of dipeptide produced from test amino acid methyl ester and L-glutamine: enzyme 0.05 U/ml, pH 9.0, 3 hours; for quantity of dipeptide produced from test amino acid methyl ester and L-glutamine / production of peptide of the corresponding amino acid and L-glutamine (not quantified): 100 mM test amino acid methyl ester, 150 mM L-glutamine; for production of peptide of the corresponding amino acid and L-glutamine (not quantified): 3 hours, no standard preparation
Description: The synthesis of peptides other than the L-alanyl-L-glutamine by the acquired peptide-forming enzyme was studied using His-Tag purified enzyme. […]

[7] = system: peptide-forming enzyme purified from Corynebacterium glutamicum strain ATCC 13286; assay: Dipeptide production by enzyme purified from Corynebacterium glutamicum; format: biochemical; details: 100 mM L-alanine methyl ester hydrochloride with 200 mM test L-amino acid, 2 units enzyme, 10 mM EDTA, pH 9.0, 4 hours, 30° C.
Protocol: This purified enzyme was then added to borate buffer (pH 9.0) containing EDTA, L-alanine methyl ester hydrochloride and L-glutamine (or L-asparagine), mixed to the total volume of 1 mL (for the final concentrations, the amount of enzyme added was 2 units as alanine amide decomposition activity, EDTA was at 10 mM, L-alanine methyl ester hydrochloride was at 100 mM and L-glutamine (or L-asparagine) was at 200 mM borate buffer at 100 mM), and allowed to react for 4 hours at 30° C.

[8] = Enzyme titer: L-alanine amide decomposition activity; format: biochemical; details: Tris-HCl pH 9.0, 60 minutes, 30° C.
Protocol: The specific activity of the purified enzyme was 9.841 U/mg, and the specific activity of the purified peptide-forming enzyme was increased about 246-fold as a result of going through these purification steps. In addition, as a result of applying the molecular weight of the purified enzyme standard to SDS polyacrylamide electrophoresis, a uniform band was detected at the position calculated to represent a molecular weight of 42,000 to 46,000. Measurement of enzyme titer was carried out as described below. 200 μM of Tris-HCl buffer (pH 9.0), 50 μM of L-alanine amide and a suitable amount of enzyme liquid were added and mixed to a final volume 1 mL, and after allowing to react for 60 minutes at 30° C., 4 mL of aqueous phosphoric acid (pH 2.1) was added to stop the reaction. The alanine produced was quantified by high-performance liquid chromatography, and the amount of enzyme that produces 1 μM of L-alanine in 1 minute was defined as 1 unit.

Sequence of proline iminopeptidase of Bacillus coagulans strain EK01 (P46541 whole entry): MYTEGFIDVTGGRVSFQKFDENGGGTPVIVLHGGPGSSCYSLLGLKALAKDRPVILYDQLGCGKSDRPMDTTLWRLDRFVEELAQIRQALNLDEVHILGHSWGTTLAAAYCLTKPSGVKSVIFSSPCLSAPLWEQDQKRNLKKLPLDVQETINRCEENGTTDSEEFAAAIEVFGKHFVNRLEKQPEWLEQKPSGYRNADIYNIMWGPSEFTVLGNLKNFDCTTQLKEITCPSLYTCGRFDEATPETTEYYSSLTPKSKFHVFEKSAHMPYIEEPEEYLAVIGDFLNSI

quantity of dipeptide produced from test amino acid methyl ester and L-glutamine [6]: 6.52 mM
Molecule: COC(=O)[C@@H](N)CCCNC(=N)N [L-arginine methyl ester]

production of peptide of the corresponding amino acid and L-glutamine (not quantified) [6]: confirmed to be produced
Molecule: COC(=O)C[C@H](N)C(=O)OC [L-aspartic acid-α,β-dimethyl ester]

quantity of dipeptide produced from test amino acid methyl ester and L-glutamine [6]: 8.22 mM
Molecule: COC(=O)[C@@H](N)CC(=O)O [L-aspartic acid-α-methyl ester]

production of peptide of the corresponding amino acid and L-glutamine (not quantified) [6]: confirmed to be produced
Molecule: COC(=O)C[C@H](N)C(=O)O [L-aspartic acid-β-methyl ester]

quantity of L-alanyl dipeptide produced from L-alanine methyl ester and test amino acid [6]: 1.11 mM
Molecule: N[C@@H](CCC(=O)O)C(=O)O [L-glutamate]

quantity of dipeptide produced from test amino acid methyl ester and L-glutamine [6]: 0.23 mM
Molecule: COC(=O)[C@@H](N)CCC(N)=O [L-glutamine methyl ester]

amount of L-alanyl dipeptide produced [7]: 50.2 mM
Molecule: NC(=O)CC[C@H](N)C(=O)O [L-glutamine]
L-alanyl dipeptide produced [5]: 12.7 mM

quantity of L-alanyl dipeptide produced from L-alanine methyl ester and test amino acid [6]: 23.16 mM
Molecule: N[C@@H](Cc1c[nH]cn1)C(=O)O [L-histidine]

quantity of dipeptide produced from test amino acid methyl ester and L-glutamine [6]: 0.59 mM
Molecule: CC[C@H](C)[C@H](N)C(=O)N[C@@H](CCC(N)=O)C(=O)O [L-isoleucyl-L-glutamine] (H-Ile-Gln-OH)

production of peptide of the corresponding amino acid and L-glutamine (not quantified) [6]: confirmed to be produced
Molecule: COC(=O)[C@@H](N)CC(C)C [L-leucine methyl ester]

quantity of L-alanyl dipeptide produced from L-alanine methyl ester and test amino acid [6]: 13.73 mM
Molecule: CC(C)C[C@H](N)C(=O)O [L-leucine]

production of peptide of the corresponding amino acid and L-glutamine (not quantified) [6]: confirmed to be produced
Molecule: COC(=O)[C@@H](N)CCCCN [L-lysine methyl ester]

quantity of dipeptide produced from test amino acid methyl ester and L-glutamine [6]: 4.31 mM
Molecule: COC(=O)[C@@H](N)CCSC [L-methionine methyl ester]

quantity of L-alanyl dipeptide produced from L-alanine methyl ester and test amino acid [6]: 16.13 mM
Molecule: N[C@@H](Cc1ccccc1)C(=O)O [L-phenylalanine]

quantity of dipeptide produced from test amino acid methyl ester and L-glutamine [6]: 40.44 mM
Molecule: COC(=O)[C@@H](N)CO [L-serine methyl ester]

quantity of L-alanyl dipeptide produced from L-alanine methyl ester and test amino acid [6]: 26.14 mM
Molecule: N[C@@H](CO)C(=O)O [L-serine]

quantity of dipeptide produced from test amino acid methyl ester and L-glutamine [6]: 3.85 mM
Molecule: COC(=O)[C@@H](N)[C@@H](C)O [L-threonine methyl ester]

quantity of L-alanyl dipeptide produced from L-alanine methyl ester and test amino acid [6]: 24.23 mM
Molecule: C[C@@H](O)[C@H](N)C(=O)O [L-threonine]

quantity of dipeptide produced from test amino acid methyl ester and L-glutamine [6]: 1.24 mM
Molecule: COC(=O)[C@@H](N)Cc1ccc(O)cc1 [L-tyrosine methyl ester]

quantity of dipeptide produced from test amino acid methyl ester and L-glutamine [6]: 5.94 mM
Molecule: COC(=O)[C@@H](N)C(C)C [L-valine methyl ester]

quantity of dipeptide produced from test amino acid methyl ester and L-glutamine [6]: 52.19 mM
Molecule: COC(=O)CN [glycine methyl ester]

quantity of L-alanyl dipeptide produced from L-alanine methyl ester and test amino acid [6]: 5.66 mM
Molecule: NCC(=O)O [glycine]

Further lines, the molecule ahead of its results:

Molecule: O=C(O)CN(CCN(CC(=O)O)CC(=O)O)CC(=O)O [EDTA, ethylenediaminetetraacetic acid]
L-alanyl-L-glutamine produced [1]: 10.1 mM

Molecule: NC(=O)CI [IAA, iodoacetoamide]
effect on enzyme activity [2]: decreased to certain extents | effect on enzyme activity [3]: decreased to certain extents | effect on enzyme activity [4]: decreased to certain extents

Molecule: CCOC(=O)[C@H](C)N.Cl [L-alanine ethyl ester hydrochloride]
L-alanyl-L-glutamine produced [5]: 11.4 mM

Molecule: COC(=O)[C@H](C)N.Cl [L-alanine methyl ester hydrochloride]
L-alanyl-L-glutamine produced [5]: 14.9 mM

Molecule: C[C@H](N)C(=O)OC(C)(C)C.Cl [L-alanine-tert-butyl ester hydrochloride]
L-alanyl-L-glutamine produced [5]: 0.5 mM

Molecule: C[C@H](N)C(=O)O [L-alanine]
quantity of L-alanyl dipeptide produced from L-alanine methyl ester and test amino acid [6]: 10.63 mM

Molecule: N=C(N)NCCC[C@H](N)C(=O)O [L-arginine]
quantity of L-alanyl dipeptide produced from L-alanine methyl ester and test amino acid [6]: 24.87 mM

Molecule: COC(=O)[C@@H](N)CC(N)=O [L-asparagine methyl ester]
production of peptide of the corresponding amino acid and L-glutamine (not quantified) [6]: confirmed to be produced

Molecule: NC(=O)C[C@H](N)C(=O)O [L-asparagine]
L-alanyl dipeptide produced [5]: 4.8 mM | amount of L-alanyl dipeptide produced [7]: 49.8 mM | quantity of L-alanyl dipeptide produced from L-alanine methyl ester and test amino acid [6]: 22.34 mM

Molecule: COC(=O)CC[C@H](N)C(=O)O [L-glutamic acid-γ-methyl ester]
production of peptide of the corresponding amino acid and L-glutamine (not quantified) [6]: confirmed to be produced

Molecule: NCCCC[C@H](N)C(=O)O [L-lysine]
quantity of L-alanyl dipeptide produced from L-alanine methyl ester and test amino acid [6]: 7.91 mM

Molecule: CSCC[C@H](N)C(=O)O [L-methionine]
quantity of L-alanyl dipeptide produced from L-alanine methyl ester and test amino acid [6]: 48.80 mM

Molecule: O=C(O)[C@@H]1CCCN1 [L-proline]
quantity of L-alanyl dipeptide produced from L-alanine methyl ester and test amino acid [6]: 1.02 mM

Molecule: N[C@@H](Cc1c[nH]c2ccccc12)C(=O)O [L-tryptophan]
quantity of L-alanyl dipeptide produced from L-alanine methyl ester and test amino acid [6]: 15.31 mM

Molecule: N[C@@H](Cc1ccc(O)cc1)C(=O)O [L-tyrosine]
quantity of L-alanyl dipeptide produced from L-alanine methyl ester and test amino acid [6]: 0.96 mM

Molecule: CCN1C(=O)C=CC1=O [NEM, N-ethylmaleimide]
effect on enzyme activity [2]: nearly completely inhibited | effect on enzyme activity [3]: nearly completely inhibited | effect on enzyme activity [4]: nearly completely inhibited

Molecule: O=S(=O)(F)Cc1ccccc1 [PMSF, phenyl methyl sulfonyl fluoride]
effect on enzyme activity [2]: did not have an effect | effect on enzyme activity [3]: did not have an effect | effect on enzyme activity [4]: did not have an effect

Molecule: peptide-forming enzyme purified from Corynebacterium glutamicum strain ATCC 13286: native enzyme purified to uniformity; amino acid sequence SEQ ID NO: 5
specific activity (L-alanine amide decomposition) [8]: 9.841 U/mg
